Literature values, collected in patent US12226530B2, “Lenalidomide gastro-retentive sustained-release tablet and preparation method thereof” (DiQi Pharmaceuticals Co., Ltd., priority 2018, dated 2025).
Where two headings read alike, the source gives them in different places.

Tests used:
[1] = not given; remark: listed apart in the source

In the case of `Nc1cccc2c1CN(C1CCC(=O)NC1=O)C2=O` (centres unmarked) [lenalidomide], the Solubility (hydrochloric acid buffer with a pH of 1.2) is listed as “about 18 mg/ml”, the Solubility (pH of solution medium greater than 4.6) is listed as “lower than 0.6 mg/ml” and the Change of concentration ([1]; solvent pH 1.2, 6 hours) is listed as “unchanged”. The Decrease of concentration ([1]; solvent pH 4.5, 6 hours) was 6% and the Decrease of concentration ([1]; solvent pH 6.8, 6 hours) was 16%.
